# Reference: patent publication US12077555B2, “STAT degraders and uses thereof” (Kymera Therapeutics, Inc., priority 2019, dated 2024)
# Target: STAT3 (Homo sapiens, UniProt P40763)
# Test: Quantitation of STAT3 degradation in A549 cells by Western blot
# Format: cell-based
# Set-up: expressed in transfected cells; host or cells: A549
# Details: read-out: A549 DC50, 24 hours, tested up to 30 μM or 10 μM
# Method in brief: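 A549 cells treated 24 h at 37° C with compound at 30, 10, 3, 1, 0.3 μM or DMSO; RIPA lysates analysed by SDS-PAGE/Western blot for total STAT3, β-actin as loading control, LI-COR fluorescence read-out. DC50 derived by sigmoidal fit of dose-dependent degradation.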
# Chain of STAT3 (P40763 whole entry): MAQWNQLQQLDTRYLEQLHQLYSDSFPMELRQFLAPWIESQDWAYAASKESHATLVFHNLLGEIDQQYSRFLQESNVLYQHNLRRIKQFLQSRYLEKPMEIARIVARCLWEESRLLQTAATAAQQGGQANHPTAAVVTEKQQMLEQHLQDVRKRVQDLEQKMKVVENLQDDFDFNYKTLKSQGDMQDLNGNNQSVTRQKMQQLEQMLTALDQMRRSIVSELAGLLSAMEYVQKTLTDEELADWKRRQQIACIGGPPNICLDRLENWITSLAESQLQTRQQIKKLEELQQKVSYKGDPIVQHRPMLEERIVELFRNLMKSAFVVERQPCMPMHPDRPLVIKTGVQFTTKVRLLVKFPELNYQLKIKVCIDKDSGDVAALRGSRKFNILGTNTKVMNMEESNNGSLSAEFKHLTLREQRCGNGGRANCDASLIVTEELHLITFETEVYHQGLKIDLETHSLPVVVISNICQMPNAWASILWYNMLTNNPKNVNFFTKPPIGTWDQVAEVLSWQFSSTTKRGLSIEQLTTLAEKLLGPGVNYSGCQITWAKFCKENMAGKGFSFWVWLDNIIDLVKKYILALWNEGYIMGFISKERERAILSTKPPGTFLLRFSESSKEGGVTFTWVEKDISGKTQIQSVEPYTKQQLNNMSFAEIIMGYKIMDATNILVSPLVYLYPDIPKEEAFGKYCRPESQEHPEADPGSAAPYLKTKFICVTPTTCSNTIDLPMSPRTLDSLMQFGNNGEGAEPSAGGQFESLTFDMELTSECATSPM
row,Structure (SMILES),DC50 [µM]
1,Cn1c(=O)n(C2CCC(=O)NC2=O)c2cccc(CCCCCCCC(=O)N3CC[C@H]4CC[C@@H](C(=O)N[C@@H](CCC(N)=O)C(=O)NC(c5ccccc5)c5ccccc5)N4C(=O)[C@@H](NC(=O)c4cc5cc(C(=O)P(=O)(O)O)ccc5[nH]4)C3)c21 (stereo partly shown) [Compound I-91],< 30
2,C/C(=C\C(=O)N[C@H]1CCc2cccc3c2N(C1=O)[C@H](C(=O)N[C@@H](CCC(N)=O)[C@@H](C)OCc1ccc(CCCCC(=O)N[C@H](C(=O)N2C[C@H](O)C[C@H]2C(=O)NC2(c4ccc(-c5scnc5C)cc4)CC2)C(C)(C)C)cc1)C3)c1ccc(C(F)(F)P(=O)(O)O)cc1 [Compound I-92],> 30
3,"Cc1ncsc1-c1ccc(CNC(=O)[C@@H]2C[C@@H](O)CN2C(=O)[C@@H](NC(=O)CCCCc2cccc(CO[C@H](C)[C@H](CCC(N)=O)NC(=O)[C@@H]3Cc4cccc5c4N3C(=O)[C@@H](NC(=O)c3cc4cc(C(=O)P(=O)(O)O)ccc4[nH]3)CC5)c2)C(C)(C)C)cc1 [Compound I-95, diammonium 2-[[(2S,11S)-2-[[(3S,4R)-1-carbamoyl-4-[[3-(4-[[(2S)-1-[(2S,4R)-4-hydroxy-2-([[4-(4-methyl-1,3-thiazol-5-yl)phenyl]methyl]carbamoyl)pyrrolidin-1-yl]-3,3-dimethyl-1-oxobutan-2-yl]carbamoyl]butyl)phenyl]methoxy]pentan-3-yl]carbamoyl]-12-oxo-1-azatricyclo[6.4.1.0^[4,13]]trideca-4(13),5,7-trien-11-yl]carbamoyl]-1H-indole-5-carbonylphosphonate]",< 30
4,"Cc1ncsc1-c1ccc(CNC(=O)[C@@H]2C[C@@H](O)CN2C(=O)[C@@H](NC(=O)CCC#Cc2ccc(CO[C@H](C)[C@H](CCC(N)=O)NC(=O)[C@@H]3Cc4cccc5c4N3C(=O)[C@@H](NC(=O)c3cc4cc(C(=O)P(=O)(O)O)ccc4[nH]3)CC5)cc2)C(C)(C)C)cc1 [Compound I-96, diammonium 2-[[(2S,11S)-2-[[(3S,4R)-1-carbamoyl-4-[[4-(4-[[(2S)-1-[(2S,4R)-4-hydroxy-2-([[4-(4-methyl-1,3-thiazol-5-yl)phenyl]methyl]carbamoyl)pyrrolidin-1-yl]-3,3-dimethyl-1-oxobutan-2-yl]carbamoyl]but-1-yn-1-yl)phenyl]methoxy]pentan-3-yl]carbamoyl]-12-oxo-1-azatricyclo[6.4.1.0^[4,13]]trideca-4(13),5,7-trien-11-yl]carbamoyl]-1H-indole-5-carbonylphosphonate]",> 30
5,"Cn1c(=O)n(C2CCC(=O)NC2=O)c2ccc(CCCCCCCC(=O)N3CC[C@H]4CC[C@@H](C(=O)N[C@@H](CCC(N)=O)C(=O)NC(c5ccccc5)c5ccccc5)N4C(=O)[C@@H](NC(=O)c4cc5cc(C(=O)P(=O)(O)O)ccc5[nH]4)C3)cc21 (stereo partly drawn) [Compound I-97, 2-[[(5S,8S,10aR)-8-[[(1S)-3-carbamoyl-1-(diphenylmethylcarbamoyl)propyl]carbamoyl]-3-[8-[1-(2,6-dioxopiperidin-3-yl)-3-methyl-2-oxo-1,3-benzodiazol-5-yl]octanoyl]-6-oxo-octahydropyrrolo[1,2-a][1,5]diazocin-5-yl]carbamoyl]-1H-indole-5-carbonylphosphonic acid]",< 30
6,"Cn1c(=O)n(C2CCC(=O)NC2=O)c2ccc(C#CCCCCC(=O)N3CC[C@H]4CC[C@@H](C(=O)N[C@@H](CCC(N)=O)C(=O)NC(c5ccccc5)c5ccccc5)N4C(=O)[C@@H](NC(=O)c4cc5cc(C(=O)P(=O)(O)O)ccc5[nH]4)C3)cc21 (stereo partly drawn) [Compound I-99, 2-[[(5S,8S,10aR)-8-[[(1S)-3-carbamoyl-1-(diphenylmethylcarbamoyl)propyl]carbamoyl]-3-[7-[1-(2,6-dioxopiperidin-3-yl)-3-methyl-2-oxo-1,3-benzodiazol-5-yl]hept-6-ynoyl]-6-oxo-octahydropyrrolo[1,2-a][1,5]diazocin-5-yl]carbamoyl]-1H-indole-5-carbonylphosphonic acid]",< 30
7,Cc1ncsc1-c1ccc(CNC(=O)[C@@H]2C[C@@H](O)CN2C(=O)[C@@H](NC(=O)CCCCCCc2ccc(CO[C@H](C)[C@H](CCC(N)=O)NC(=O)[C@@H]3Cc4cccc5c4N3C(=O)[C@@H](NC(=O)c3cc4cc(C(=O)P(=O)(O)O)ccc4[nH]3)CC5)cc2)C(C)(C)C)cc1 [Compound I-100],< 30
8,Cc1ncsc1-c1ccc(CNC(=O)C2C[C@@H](O)CN2C(=O)[C@@H](NC(=O)CCCc2ccc(CO[C@H](C)[C@H](CCC(N)=O)NC(=O)[C@@H]3Cc4cccc5c4N3C(=O)[C@@H](NC(=O)c3cc4cc(C(=O)P(=O)(O)O)ccc4[nH]3)CC5)cc2)C(C)(C)C)cc1 (stereo partly shown) [Compound I-101],< 30
9,"Cn1c(C(=O)N[C@H]2CN(C(=O)CCCCCC#Cc3cccc4c3CN(C3CCC(=O)NC3=O)C4=O)CC[C@H]3CC[C@@H](C(=O)N[C@@H](CCC(N)=O)C(=O)NC(c4ccccc4)c4ccccc4)N3C2=O)cc2cc(C(=O)P(=O)(O)O)ccc21 (stereo partly drawn) [Compound I-102, diammonium 2-[[(5S,8S,10aR)-8-[[(1S)-3-carbamoyl-1-(diphenylmethylcarbamoyl)propyl]carbamoyl]-3-[8-[2-(2,6-dioxopiperidin-3-yl)-1-oxo-3H-isoindol-4-yl]oct-7-ynoyl]-6-oxo-octahydropyrrolo[1,2-a][1,5]diazocin-5-yl]carbamoyl]-1-methylindole-5-carbonylphosphonate]",< 30
10,"Cn1c(=O)n(C2CCC(=O)NC2=O)c2ccc(C#CCCCCCC(=O)N3CC[C@H]4CC[C@@H](C(=O)N[C@@H](CCC(N)=O)C(=O)NC(c5ccccc5)c5ccccc5)N4C(=O)[C@@H](NC(=O)c4cc5cc(C(=O)P(=O)(O)O)ccc5[nH]4)C3)cc21 (stereo partly drawn) [Compound I-104, 2-[[(5S,8S,10aR)-8-[[(1S)-3-carbamoyl-1-(diphenylmethylcarbamoyl)propyl]carbamoyl]-3-[8-[1-(2,6-dioxopiperidin-3-yl)-3-methyl-2-oxo-1,3-benzodiazol-5-yl]oct-7-ynoyl]-6-oxo-octahydropyrrolo[1,2-a][1,5]diazocin-5-yl]carbamoyl]-1H-indole-5-carbonylphosphonic acid]",< 30
11,"Cn1c(=O)n(C2CCC(=O)NC2=O)c2ccc(C#CCCCC(=O)N3CC[C@H]4CC[C@@H](C(=O)N[C@@H](CCC(N)=O)C(=O)NC(c5ccccc5)c5ccccc5)N4C(=O)[C@@H](NC(=O)c4cc5cc(C(=O)P(=O)(O)O)ccc5[nH]4)C3)cc21 (stereo partly drawn) [Compound I-105, 2-[[(5S,8S,10aR)-8-[[(1S)-3-carbamoyl-1-(diphenylmethylcarbamoyl)propyl]carbamoyl]-3-[6-[1-(2,6-dioxopiperidin-3-yl)-3-methyl-2-oxo-1,3-benzodiazol-5-yl]hex-5-ynoyl]-6-oxo-octahydropyrrolo[1,2-a][1,5]diazocin-5-yl]carbamoyl]-1H-indole-5-carbonylphosphonic acid]",< 30
12,"Cn1c(=O)n(C2CCC(=O)NC2=O)c2ccc(CCCCCC(=O)N3CC[C@H]4CC[C@@H](C(=O)N[C@@H](CCC(N)=O)C(=O)NC(c5ccccc5)c5ccccc5)N4C(=O)[C@@H](NC(=O)c4cc5cc(C(=O)P(=O)(O)O)ccc5[nH]4)C3)cc21 (stereo partly drawn) [Compound I-107, 2-[[(5S,8S,10aR)-8-[[(1S)-3-carbamoyl-1-(diphenylmethylcarbamoyl)propyl]carbamoyl]-3-[6-[1-(2,6-dioxopiperidin-3-yl)-3-methyl-2-oxo-1,3-benzodiazol-5-yl]hexanoyl]-6-oxo-octahydropyrrolo[1,2-a][1,5]diazocin-5-yl]carbamoyl]-1H-indole-5-carbonylphosphonic acid]",< 30
13,"C/C(=C\C(=O)N[C@H]1CCc2cccc3c2N(C1=O)[C@H](C(=O)N[C@@H](CCC(N)=O)[C@@H](C)OCCCc1ccc2c(c1)n(C)c(=O)n2C1CCC(=O)NC1=O)C3)c1ccc(C(F)(F)P(=O)(O)O)cc1 (stereo partly drawn) [Compound I-110, diammonium [4-[(1E)-1-[[(2S,11S)-2-[[(3S,4R)-1-carbamoyl-4-[3-[1-(2,6-dioxopiperidin-3-yl)-3-methyl-2-oxo-1,3-benzodiazol-5-yl]propoxy]pentan-3-yl]carbamoyl]-12-oxo-1-azatricyclo[6.4.1.0^[4,13]]trideca-4(13),5,7-trien-11-yl]carbamoyl]prop-1-en-2-yl]phenyl]difluoromethylphosphonate]",> 30
14,C/C(=C\C(=O)N[C@H]1CN(C(=O)CCCCCCc2ccc3c(c2)n(C)c(=O)n3C2CCC(=O)NC2=O)CC[C@H]2CC[C@@H](C(=O)N[C@@H](CCC(N)=O)C(=O)NC(c3ccccc3)c3ccccc3)N2C1=O)c1ccc(C(F)(F)P(=O)(O)O)cc1 (stereo partly shown) [Compound I-112],< 30
15,"C/C(=C\C(=O)N[C@H]1CN(C(=O)CCCCCCCc2ccc3c(c2)n(C)c(=O)n3C2CCC(=O)NC2=O)CC[C@H]2CC[C@@H](C(=O)N[C@@H](CCC(N)=O)C(=O)NC(c3ccccc3)c3ccccc3)N2C1=O)c1ccc(C(F)(F)P(=O)(O)O)cc1 (stereo partly drawn) [Compound I-113, [4-[(1E)-1-[[(5S,8S,10aR)-8-[[(1S)-3-carbamoyl-1-(diphenylmethylcarbamoyl)propyl]carbamoyl]-3-[8-[1-(2,6-dioxopiperidin-3-yl)-3-methyl-2-oxo-1,3-benzodiazol-5-yl]octanoyl]-6-oxo-octahydropyrrolo[1,2-a][1,5]diazocin-5-yl]carbamoyl]prop-1-en-2-yl]phenyl]difluoromethylphosphonic acid]",> 30
16,"C/C(=C\C(=O)N[C@H]1CN(C(=O)CCCCCc2ccc3c(c2)n(C)c(=O)n3C2CCC(=O)NC2=O)CC[C@H]2CC[C@@H](C(=O)N[C@@H](CCC(N)=O)C(=O)NC(c3ccccc3)c3ccccc3)N2C1=O)c1ccc(C(F)(F)P(=O)(O)O)cc1 (stereo partly drawn) [Compound I-114, [4-[(1E)-1-[[(5S,8S,10aR)-8-[[(1S)-3-carbamoyl-1-(diphenylmethylcarbamoyl)propyl]carbamoyl]-3-[6-[1-(2,6-dioxopiperidin-3-yl)-3-methyl-2-oxo-1,3-benzodiazol-5-yl]hexanoyl]-6-oxo-octahydropyrrolo[1,2-a][1,5]diazocin-5-yl]carbamoyl]prop-1-en-2-yl]phenyl]difluoromethylphosphonic acid]",> 30
